Results as given in US11214803B2, “Modulators of YAP1 expression” (Ionis Pharmaceuticals, Inc., priority 2019, dated 2022).
Strand notation (5' to 3'): a small letter for the sugar, then the base; units joined by * are phosphorothioate-linked, units joined directly phosphodiester-linked; [ ] holds rarer units or linkages, { } end groups; capitals alone tell only the bases. k = constrained ethyl (cEt); [5mC] = 5-methylcytosine; d = 2'-deoxy (DNA)

Tested on: Yap1 mRNA
Assay: Antisense inhibition of human Yap1 in A-431 cells by cEt gapmers, single dose (Example 2, RTS4814)
Format: cell-based
Procedure: Modified oligonucleotides were designed to target a Yap1 nucleic acid and were tested for their effect on Yap1 mRNA level in vitro. The modified oligonucleotides were tested in a series of experiments that had similar culture conditions. Cultured A-431 cells at a density of 5,000 cells per well were treated using free uptake with 2,000 nM of modified oligonucleotide. After a treatment period of approximately 48 hours, RNA was isolated from the cells and Yap1 mRNA levels were measured by quantitative real-time RTPCR. Human primer probe set RTS4814 was used to measure mRNA levels. Yap1 mRNA levels were normalized to total RNA content, as measured by RIBOGREEN®. Results are presented in the tables below as percent control of the amount of Yap1 mRNA relative to untreated control cells (% UTC). The modified oligonucleotides with percent control values marked with an asterisk (*) target the amplicon region of the primer probe set. Additional assays may be used to measure the potency and efficacy of the modified oligonucleotides targeting the amplicon region.
The newly designed modified oligonucleotides in the Tables below were designed as 3-10-3 cEt gapmers. The gapmers are 16 nucleosides in length, wherein the central gap segment comprises of ten 2′-deoxynucleosides and is flanked by wing segments on the 5′ direction and the 3′ direction comprising three nucleosides each. Each nucleoside in the 5′ wing segment and each nucleoside in the 3′ wing segment has a cEt sugar modification. The internucleoside linkages throughout each gapmer are phosphorothioate (P═S) linkages. All cytosine residues throughout each gapmer are 5-methylcytosines.
“Start site” indicates the 5′-most nucleoside to which the gapmer is targeted in the human gene sequence. “Stop site” indicates the 3′-most nucleoside to which the gapmer is targeted human gene sequence. […] Activity ofthe modified oligonucleotide may be defined in a different experiment.

[1] = Table 33, Yap1 mRNA, percent of untreated control, 3-10-3 cEt gapmers targeting SEQ ID NO.: 1, and 2
[2] = Yap1 mRNA as percent of untreated control, A-431 cells, 3-10-3 cEt gapmers targeting SEQ ID NO.: 1, and 2, Table 30
[3] = Table 21, Yap1 mRNA, percent of untreated control, 3-10-3 cEt gapmers targeting SEQ ID NO.: 1 and 2
[4] = Table 22, Yap1 mRNA as percent of untreated control, 3-10-3 cEt gapmers, single dose
[5] = Table 18, A-431 cells, 5,000 cells per well, free uptake, 2,000 nM modified oligonucleotide, approx. 48 hours, RTS4814, normalized to RIBOGREEN, Yap1 mRNA as percent of untreated control
[6] = Yap1 mRNA as percent of untreated control, A-431 cells, 3-10-3 cEt gapmers targeting SEQ ID NO.: 1, and 2, Table 31
[7] = Table 24, Yap1 mRNA as percent of untreated control, 3-10-3 cEt gapmers targeting SEQ ID NO.: 1, and 2
[8] = Table 32, Yap1 mRNA, percent of untreated control, 3-10-3 cEt gapmers targeting SEQ ID NO.: 1, and 2
[9] = Table 20, Yap1 mRNA, percent of untreated control, 3-10-3 cEt gapmers targeting SEQ ID NO.: 1 and 2
[10] = Table 25, Yap1 mRNA as percent of untreated control, 3-10-3 cEt gapmers targeting SEQ ID NO.: 1, and 2
[11] = Table 6, A-431 cells, 5,000 cells per well, free uptake, 2,000 nM modified oligonucleotide, approx. 48 hours, RTS4814, normalized to RIBOGREEN, Yap1 mRNA relative to untreated control cells
[12] = A-431 cells, 5,000 cells per well, free uptake, 2,000 nM modified oligonucleotide, approx. 48 hours, RTS4814, normalized to RIBOGREEN, Table 4, asterisk (*) = targets amplicon region of primer probe set
[13] = Table 5, A-431 cells, 5,000 cells per well, free uptake, 2,000 nM modified oligonucleotide, approx. 48 hours, RTS4814, normalized to RIBOGREEN, Yap1 mRNA relative to untreated control cells
[14] = Table 19, A-431 cells, 5,000 cells per well, free uptake, 2,000 nM modified oligonucleotide, approx. 48 hours, RTS4814, normalized to RIBOGREEN, Yap1 mRNA as percent of untreated control

## 1075251 (kT*kA*kA*dT*dT*dA*d[5mC]*dG*dA*dT*dT*dA*dG*kA*kT*k[5mC]; antisense) [compound 1075251]
[1]
  YAP1 (% UTC): 79 % UTC

## 1075024 (antisense kA*k[5mC]*kT*dG*dA*dA*d[5mC]*dA*dA*dG*dT*dA*dT*k[5mC]*kT*kT) [compound 1075024]
[2]
  YAP1 (% UTC): 32 % UTC

## 1076496 (kG*kT*kT*dA*dA*dA*dG*dA*d[5mC]*d[5mC]*dA*dA*d[5mC]*kA*k[5mC]*kA; antisense) [compound 1076496]
[2]
  YAP1 (% UTC): 81 % UTC

## 1075719 (k[5mC]*kT*kA*dA*dA*dA*d[5mC]*d[5mC]*dG*dG*d[5mC]*dT*dG*kG*kA*k[5mC]; antisense) [Compound 1075719]
[3]
  YAP1 (% UTC): 76 % UTC

## 1074312 (antisense kA*kT*kA*dT*dT*d[5mC]*d[5mC]*dG*d[5mC]*dA*dT*dT*dG*k[5mC]*k[5mC]*kT) [Compound 1074312]
[4]
  YAP1 (% UTC): 18 % UTC

## 1074567 (antisense kA*kA*k[5mC]*d[5mC]*dT*dA*d[5mC]*dT*d[5mC]*dA*d[5mC]*dT*dG*kA*kA*kT) [Compound 1074567]
[3]
  YAP1 (% UTC): 38 % UTC

## 1074692 (antisense k[5mC]*k[5mC]*k[5mC]*d[5mC]*d[5mC]*d[5mC]*d[5mC]*dA*dA*dA*d[5mC]*dT*dT*kT*k[5mC]*k[5mC]) [Compound 1074692]
[5]
  YAP1 (% UTC): 101 % UTC

## 1075793 (k[5mC]*kA*kT*dT*dA*dG*dT*dT*dG*d[5mC]*d[5mC]*d[5mC]*dT*kG*kA*k[5mC]; antisense) [compound 1075793]
[6]
  YAP1 (% UTC): 31 % UTC

## 1075210 (antisense kG*kT*kA*dT*dT*dT*dT*dA*dA*d[5mC]*d[5mC]*dT*dA*kA*kA*k[5mC]) [Compound 1075210]
[7]
  YAP1 (% UTC): 100 % UTC

## 1076039 (kG*kA*kT*dT*dA*dG*dA*dG*d[5mC]*dT*dG*dT*dA*kT*kT*k[5mC]; antisense) [Compound 1076039]
[3]
  YAP1 (% UTC): 29 % UTC

## 1076562 (kT*kA*kT*dT*dA*d[5mC]*dA*dG*dA*dG*dG*dG*dT*kA*kG*k[5mC]; antisense) [compound 1076562]
[8]
  YAP1 (% UTC): 17 % UTC

## 1076070 (kA*kT*kT*dA*dG*dT*dA*dA*dT*dG*d[5mC]*dA*d[5mC]*kA*kG*kG; antisense) [Compound 1076070]
[9]
  YAP1 (% UTC): 6 % UTC

## 1074891 (antisense kT*kG*kA*dA*dG*dT*dT*dT*dA*dG*d[5mC]*d[5mC]*dT*kG*kA*kA) [Compound 1074891]
[10]
  YAP1 (% UTC): 31 % UTC

## 716528 (antisense kT*kT*kA*dG*dG*dT*d[5mC]*dT*d[5mC]*d[5mC]*dT*dT*d[5mC]*kA*kG*kG) [Compound 716528]
[11]
  YAP1 (% UTC): 70 % UTC

## 1074227 (antisense kA*k[5mC]*kT*dG*dT*d[5mC]*dG*dA*dA*dG*dA*dT*dG*k[5mC]*kT*kG) [compound 1074227]
[1]
  YAP1 (% UTC): 10 % UTC

## 1075154 (k[5mC]*kA*kT*dT*dA*dT*dA*dA*dT*dG*dG*dG*dA*kG*kG*kA; antisense) [compound 1075154]
[8]
  YAP1 (% UTC): 13 % UTC

## 1075794 (k[5mC]*kA*kT*dA*dA*dT*dG*dA*dA*dT*dG*dT*dG*kG*kG*kT; antisense) [compound 1075794]
[8]
  YAP1 (% UTC): 38 % UTC

## 716409 (k[5mC]*kA*kG*dG*dA*dA*dG*dT*d[5mC]*dA*dT*d[5mC]*dT*kG*kG*kG; antisense) [Compound 716409]
[12]
  YAP1 (% UTC): 99 % UTC

## 716500 (kA*kA*k[5mC]*dT*dT*d[5mC]*dT*dT*dA*d[5mC]*dT*dT*d[5mC]*k[5mC]*kA*kA; antisense) [Compound 716500]
[13]
  YAP1 (% UTC): 18 % UTC

## 1074410 (antisense kT*kA*kG*dA*dG*dG*dA*dT*dT*dA*dA*dA*dG*kT*kA*kT) [Compound 1074410]
[7]
  YAP1 (% UTC): 32 % UTC

## 1074182 (antisense kG*k[5mC]*k[5mC]*d[5mC]*dG*dG*dG*dA*dT*d[5mC]*d[5mC]*dA*dT*kG*kG*k[5mC]) [Compound 1074182]
[9]
  YAP1 (% UTC): 82 % UTC

## 1075313 (antisense k[5mC]*kT*kT*dA*dA*dT*dT*dG*dA*dA*d[5mC]*dT*d[5mC]*kA*kG*kG) [compound 1075313]
[6]
  YAP1 (% UTC): 28 % UTC

## 1076327 (kG*kA*kT*dA*dA*dG*d[5mC]*dA*dA*dG*dG*dT*dT*k[5mC]*kT*k[5mC]; antisense) [Compound 1076327]
[3]
  YAP1 (% UTC): 7 % UTC

## 716401 (kA*kA*k[5mC]*dT*dG*dG*d[5mC]*dT*dA*d[5mC]*dG*d[5mC]*dA*kG*kG*kG; antisense) [Compound 716401]
[13]
  YAP1 (% UTC): 92 % UTC

## 1074757 (kA*kG*kT*dT*dA*dA*dG*d[5mC]*dA*d[5mC]*dT*dT*dT*kT*kA*k[5mC]; antisense) [Compound 1074757]
[14]
  YAP1 (% UTC): 21 % UTC

## 716431 (kA*kA*kT*dG*dA*dT*dT*dG*dG*dT*dG*dA*dA*k[5mC]*kA*kT; antisense) [Compound 716431]
[13]
  YAP1 (% UTC): 55 % UTC

## 716554 (kA*kT*kG*d[5mC]*dT*dT*dG*d[5mC]*dG*dA*dG*dG*dA*kT*kA*kA; antisense) [Compound 716554]
[13]
  YAP1 (% UTC): 30 % UTC

## 1074759 (k[5mC]*kA*kA*d[5mC]*d[5mC]*dA*dA*dG*dA*dA*dG*d[5mC]*dA*kG*kT*kT; antisense) [Compound 1074759]
[3]
  YAP1 (% UTC): 43 % UTC

## 716498 (kG*kA*kA*dG*dG*dG*d[5mC]*d[5mC]*dA*dA*dA*dA*dT*kA*k[5mC]*kT; antisense) [Compound 716498]
[11]
  YAP1 (% UTC): 92 % UTC

## 1075114 (antisense kG*kT*kA*dT*dA*dA*dA*dT*dA*d[5mC]*d[5mC]*dA*dG*kG*kT*kA) [Compound 1075114]
[7]
  YAP1 (% UTC): 26 % UTC

## 1076423 (k[5mC]*k[5mC]*kT*dG*dA*dA*d[5mC]*d[5mC]*dT*dT*d[5mC]*dT*dG*kG*kA*kT; antisense) [Compound 1076423]
[3]
  YAP1 (% UTC): 93 % UTC

## 1075179 (antisense kA*kA*kT*dT*dA*dG*d[5mC]*d[5mC]*dG*dG*dT*d[5mC]*d[5mC]*k[5mC]*kA*kG) [Compound 1075179]
[10]
  YAP1 (% UTC): 107 % UTC

## 716487 (kA*k[5mC]*kA*d[5mC]*dA*dT*dA*d[5mC]*dT*d[5mC]*dT*dA*dG*kT*kT*kA; antisense) [Compound 716487]
[12]
  YAP1 (% UTC): 64 % UTC

## 1074449 (k[5mC]*kT*kA*dA*dT*dG*dA*dT*dA*dG*d[5mC]*dA*d[5mC]*kT*kA*kG; antisense) [compound 1074449]
[6]
  YAP1 (% UTC): 36 % UTC

## 1075401 (antisense k[5mC]*kG*kA*dT*dT*dA*dA*dA*dA*d[5mC]*dA*d[5mC]*dT*kG*kG*kT) [Compound 1075401]
Table 23, Yap1 mRNA as percent of untreated control, 3-10-3 cEt gapmers, single dose
  YAP1 (% UTC): 3 % UTC

## 1075207 (antisense k[5mC]*kT*kA*dT*dT*dA*dA*dA*dT*dG*dA*dG*d[5mC]*kA*k[5mC]*k[5mC]) [Compound 1075207]
[3]
  YAP1 (% UTC): 4 % UTC

## 1075236 (antisense kT*kA*kT*dA*dA*dT*dA*d[5mC]*d[5mC]*dA*d[5mC]*dA*dA*kA*kG*kT) [Compound 1075236]
[5]
  YAP1 (% UTC): 81 % UTC

## 1075365 (k[5mC]*kA*k[5mC]*dG*dA*dA*dA*dA*dT*dA*dG*dT*dT*k[5mC]*kT*k[5mC]; antisense) [Compound 1075365]
[14]
  YAP1 (% UTC): 11 % UTC

## 1074376 (antisense kA*kA*k[5mC]*dG*dG*dT*dT*d[5mC]*dT*dG*d[5mC]*dT*dG*kT*kG*kA) [Compound 1074376]
[4]
  YAP1 (% UTC): 44 % UTC

## 1074123 (antisense kG*k[5mC]*kT*dG*d[5mC]*dG*dA*dG*dG*d[5mC]*dA*d[5mC]*dT*k[5mC]*kG*kG) [Compound 1074123]
[10]
  YAP1 (% UTC): 72 % UTC
